According to patent publication US11795152B2, “Crystal form of tafamidis and preparation method therefor and use thereof” (CRYSTAL PHARMACEUTICAL (SUZHOU) CO., LTD., priority 2019, dated 2023):
“Also recorded” adds a separate entry of the source.

Legend:
Assay type in all cases: physicochemical
[1] = Stability of drug substance on storage (XRPD, HPLC purity); settings: for chemical purity during storage: drug substance
Excerpt: Crystalline form and chemical impurity were checked by XRPD and HPLC, respectively.
Crystalline form and purity were checked by XRPD and HPLC, respectively.

[2] = Grinding stability (XRPD before and after grinding); settings: manually ground in the mortar for five minutes
Excerpt: A certain amount of Form CSV and WO2016038500 Form 1 were manually ground in the mortar for five minutes.

[3] = Compressibility (manual tablet press, tensile strength); settings: 80 mg, φ6 mm round tooling, 10 KN
Method: An ENERPAC manual tablet press was used for tableting. […] Diameter (D) and thickness (L) were tested with a caliper. Hardness (H) was tested with an intelligent tablet hardness tester. Tensile strength of the powder was calculated with the following formula: T=2H/πDL*9.8. Under a certain force, the greater the tensile strength, the better the compressibility.
Diameter (D) and thickness (L) were tested with a caliper. Hardness (H) was tested with an intelligent tablet hardness tester. Tensile strength of the powder was calculated with the following formula: T=2H/πDL*9.8. Under a certain force, the greater the tensile strength, the better the compressibility.

[4] = Hygroscopicity by dynamic vapor sorption (DVS); settings: 80% RH; for Weight gain: 25° C., DVS; for hygroscopicity: pharmacopoeia definition
Method: Dynamic Vapor Sorption (DVS) is measured via a SMS (Surface Measurement Systems Ltd.) intrinsic DVS instrument. Its control software is DVS-Intrinsic control software. Typical parameters for DVS tests are as follows:
Gas and flow rate: N2, 200 mL/min
RH range: 0% RH to 95% RH
The weight gains at each relative humidity were recorded in a cycle of 0-95%-0 RH. The XRPD patterns were collected before and after the DVS test and depicted in FIG. 11.
Description and definition of hygroscopicity (general notice 9103 drug hygroscopicity test guidelines in 2015 edition of Chinese Pharmacopoeia, test at 25° C.+/−1° C., 80% RH. The definition of hygroscopicity in the 9th European Pharmacopoeia 5.11 is in consistent with the Chinese Pharmacopoeia.). • deliquescent: sufficient water is absorbed to form a solution. • very hygroscopic: increase in mass is equal to or greater than 15 percent. • hygroscopic: increase in mass is less than 15 percent and equal to or greater than 2 percent. • slightly hygroscopic: increase in mass is less than 2 percent and equal to or greater than 0.2 percent. • non hygroscopic or almost non hygroscopic: Increase in mass is less than 0.2%.
The weight gains at each relative humidity were recorded in a cycle of 0-95%-0RH. The XRPD patterns were collected before and after the DVS test and depicted in FIG. 22. […] Form CSVI is slightly hygroscopic.
The weight gains at each relative humidity were recorded in a cycle of 0-95%-0RH. The XRPD patterns were collected before and after the DVS test and depicted in FIG. 31.

[5] = Stability of Form CSV in drug product; settings: for Purity % / Solid Form: drug product
Excerpt: X-ray powder diffraction patterns of drug product stability study in the present disclosure were acquired by a Bruker D8 Discover X-ray powder diffractometer. The parameters of the X-ray powder diffraction method of the present disclosure are as follows:
The XRPD patterns were collected before and after the formulation process.

[6] = Dissolution profile of capsules in pH6.8 PBS; settings: capsule 61 mg, paddle 50 rpm, 37° C.
Method: The cumulative dissolution was measured at different time in pH6.8 PBS.

[7] = Dissolution profile of tablets in pH6.8 PBS+1% Tween 80; settings: tablet 61 mg, paddle 75 rpm, 37° C.
Method: (§1) The cumulative dissolution was measured at different time in pH6.8 PBS+1% Tween 80 and pH6.8 PBS+3% Tween 80. The dissolution results are presented in Table 24 (FIG. 23) and Table 25 (FIG. 24).
The cumulative dissolution was measured at different time in pH6.8 PBS+1% Tween 80.

[8] = Dissolution profile of tablets in pH6.8 PBS+3% Tween 80; settings: tablet 61 mg, paddle 75 rpm, 37° C.
Method: as §1

[9] = 40° C./75% RH, Sealed, 6 months
[10] = 60° C./75% RH, Sealed, 2 months
[11] = 40° C./75% RH and 60° C./75% RH
[12] = double aluminum blister, 25° C./60% RH, 3 months
[13] = double aluminum blister, 40° C./75% RH, 3 months

O=C(O)/C=C/C(=O)O.O=C(O)c1ccc2nc(-c3cc(Cl)cc(Cl)c3)oc2c1.O=C(O)c1ccc2nc(-c3cc(Cl)cc(Cl)c3)oc2c1 [Form CSV]
Purity ([1]; 25° C./60% RH, Open, 6 months): 99.96%
Solid Form ([1]; 25° C./60% RH, Open, 6 months): Form CSV
Purity ([1]; 40° C./75% RH, Open, 6 months): 99.96%
Solid Form ([1]; 40° C./75% RH, Open, 6 months): Form CSV
Purity [1, 9]: 99.96%
Solid Form [1, 9]: Form CSV
Purity ([1]; 60° C./75% RH, Open, 2 months): 99.94%
Solid Form ([1]; 60° C./75% RH, Open, 2 months): Form CSV
Purity [1, 10]: 99.94%
Solid Form [1, 10]: Form CSV
Purity ([1]; Initial): 99.96%
Solid Form ([1]; Initial): Form CSV
chemical purity during storage ([1]; 25° C./60% RH): above 99.9%
chemical purity during storage [1, 11]: above 99.9%
crystallinity after grinding [2]: keeps substantially unchanged
Hardness ([3]; 24 hours recovery): 4.85 kgf
Tensile strength ([3]; T=2H/πDL*9.8): 2.86 MPa
Weight gain [4]: 0.09%
hygroscopicity [4]: non hygroscopic or almost non-hygroscopic; also recorded: non-hygroscopic or almost non-hygroscopic
Purity % ([5]; Initial): 99.84%
Solid Form ([5]; Initial): Form CSV
Purity % [5, 12]: 99.87%
Solid Form [5, 12]: Form CSV
Purity % [5, 13]: 99.86%
Solid Form [5, 13]: Form CSV
stability in the formulation process (XRPD before and after) ([5]; formulation of Table 10, process of Table 11): stable in the formulation process
Cumulative drug release (%) ([6]; 0 min): 0.0%
Cumulative drug release (%) ([6]; 5 min): 6.6%
Cumulative drug release (%) ([6]; 10 min): 67.6%
Cumulative drug release (%) ([6]; 15 min): 82.8%
Cumulative drug release (%) ([6]; 20 min): 88.4%
Cumulative drug release (%) ([6]; 30 min): 89.1%
Cumulative drug release (%) ([6]; 45 min): 87.4%
Cumulative drug release (%) ([6]; 60 min): 86.4%

O=C(O)CCCC(=O)O.O=C(O)c1ccc2nc(-c3cc(Cl)cc(Cl)c3)oc2c1.O=C(O)c1ccc2nc(-c3cc(Cl)cc(Cl)c3)oc2c1 [Form CSVI]
Purity ([1]; 25° C./60% RH, Open, 6 months): 99.96%
Solid Form ([1]; 25° C./60% RH, Open, 6 months): Form CSVI
Purity ([1]; 40° C./75% RH, Open, 6 months): 99.95%
Solid Form ([1]; 40° C./75% RH, Open, 6 months): Form CSVI
Purity [1, 9]: 99.95%
Solid Form [1, 9]: Form CSVI
Purity [1, 10]: 99.95%
Solid Form [1, 10]: Form CSVI
Purity ([1]; Initial): 99.95%
Solid Form ([1]; Initial): Form CSVI
chemical purity during storage ([1]; 25° C./60% RH): above 99.9%
chemical purity during storage [1, 11]: above 99.9%
Weight gain [4]: 0.21%
hygroscopicity [4]: slightly hygroscopic (increase in mass is less than 2 percent and equal to or greater than 0.2 percent)
Cumulative drug release in pH 6.8 PBS + 1% Tween 80 (%) ([7]; 0 min): 0.0%
Cumulative drug release in pH 6.8 PBS + 1% Tween 80 (%) ([7]; 5 min): 19.1%
Cumulative drug release in pH 6.8 PBS + 1% Tween 80 (%) ([7]; 10 min): 28.3%
Cumulative drug release in pH 6.8 PBS + 1% Tween 80 (%) ([7]; 15 min): 34.7%
Cumulative drug release in pH 6.8 PBS + 1% Tween 80 (%) ([7]; 20 min): 39.8%
Cumulative drug release in pH 6.8 PBS + 1% Tween 80 (%) ([7]; 30 min): 47.4%
Cumulative drug release in pH 6.8 PBS + 1% Tween 80 (%) ([7]; 45 min): 56.0%
Cumulative drug release in pH 6.8 PBS + 1% Tween 80 (%) ([7]; 60 min): 62.1%
Cumulative drug release in pH 6.8 PBS + 1% Tween 80 (%) ([7]; 90 min): 70.4%
Cumulative drug release in pH 6.8 PBS + 1% Tween 80 (%) ([7]; 120 min): 75.7%
Cumulative drug release in pH 6.8 PBS + 1% Tween 80 (%) ([7]; 150 min): 80.7%
Cumulative drug release in pH 6.8 PBS + 3% Tween 80 (%) ([8]; 0 min): 0.0%
Cumulative drug release in pH 6.8 PBS + 3% Tween 80 (%) ([8]; 5 min): 27.0%
Cumulative drug release in pH 6.8 PBS + 3% Tween 80 (%) ([8]; 10 min): 38.2%
Cumulative drug release in pH 6.8 PBS + 3% Tween 80 (%) ([8]; 15 min): 46.4%
Cumulative drug release in pH 6.8 PBS + 3% Tween 80 (%) ([8]; 20 min): 51.9%
Cumulative drug release in pH 6.8 PBS + 3% Tween 80 (%) ([8]; 30 min): 60.4%
Cumulative drug release in pH 6.8 PBS + 3% Tween 80 (%) ([8]; 45 min): 68.5%
Cumulative drug release in pH 6.8 PBS + 3% Tween 80 (%) ([8]; 60 min): 73.8%
Cumulative drug release in pH 6.8 PBS + 3% Tween 80 (%) ([8]; 90 min): 79.2%
Cumulative drug release in pH 6.8 PBS + 3% Tween 80 (%) ([8]; 120 min): 81.9%
